From PMC4977651, “Molecular features of biguanides required for targeting of mitochondrial respiratory complex I and activation of AMP-kinase” (BMC Biology, 2016)
“And” between values parts separate entries of the source, which are not always exact repeats. Identical values can stand only once. Like-named read-outs stand apart in the source and are kept apart here.

How the values were obtained:
[1] = target: bovine heart mitochondrial membranes (complex I) (Bos taurus, UniProt P03887+P03898+P17694+P42026); test: NADH:O2 oxidoreduction by bovine heart mitochondrial membranes (complexes I-III-IV); format: biochemical
Protocol: (§1) Complex I and mitochondrial membranes were prepared from Bos taurus (bovine) heart. Intact mitochondria were isolated from rat liver and mouse heart and liver. Membranes were prepared from mouse heart mitochondria by 5 s bursts of sonication at 4 °C and collected by centrifugation (75,000 × g, 1 h).
(§2) Assays were performed at 32 °C in a SpectraMax 96-well plate reader. NADH:decylubiquinone oxidoreduction by complex I at 0.5 μg mL^−1 was measured in 20 mM Tris-HCl (pH 7.2), 0.15 % soy bean asolectin (Avanti Polar Lipids), and 0.15 % 3-((3-cholamidopropyl)dimethylammonium)-1-propanesulfonate (CHAPS, Merck Chemicals Ltd), with 200 μM decylubiquinone and 200 μM NADH, and monitored using ε340–380(NADH) = 4.81 mM^−1 cm^−1 [23]. Catalysis was initiated by addition of NADH and maximal rates determined by linear regression. NADH:O2 oxidoreduction by membranes was measured similarly but using 5 μg mL^−1 membranes in 10 mM Tris-HCl (pH 7.4) and 250 mM sucrose using 200 μM NADH and supplemented with 0.15 mM horse heart cytochrome c (Sigma-Aldrich Ltd.). Succinate:O2 oxidoreduction was measured using 40 μg mL^−1 membranes in 5 mM succinate in 10 mM Tris-HCl (pH 7.4) as described previously. Control experiments included NaCl (to match the ionic strength) or DMSO, as appropriate.
Experimental values are reported as mean averages ± standard deviation (SD) of technical replicates for large sample sizes and mean averages ± standard error of the mean (SEM) of technical replicates for small sample sizes. Data were analyzed by the unpaired two-tailed Student’s t test. IC50 values were determined using the standard dose-effect relationship (activity (%) = 100 × IC50 / (IC50 + [inhibitor]^m) with the Hill Slope (m) set to unity for purified complex I) and are reported with 95 % confidence intervals.

[2] = system: bovine mitochondrial membranes (complexes II-III-IV); test: Succinate:O2 oxidoreduction (complexes II-III-IV, complex II assay) by bovine mitochondrial membranes; format: biochemical, Bos taurus; settings: biguanide concentrations set to the IC50 values for NADH:O2 on bovine membranes; control = 100.00; n = 3
Protocol: as §2

rat liver mitochondria = test: ADP-stimulated rotenone-sensitive OCR in isolated rat liver mitochondria; format: biochemical; design: rotenone sensitive OCR after ADP stimulation, individual replicates / rotenone sensitive OCR after ADP stimulation, average: unit not given here; settings: for rotenone sensitive OCR after ADP stimulation, % of control, average / rotenone sensitive OCR after ADP stimulation, average: average of replicates; for rotenone sensitive OCR after ADP stimulation, % of control, individual replicates / rotenone sensitive OCR after ADP stimulation, individual replicates: replicate 1-5
Protocol: as §1
(§3) Isolated mitochondria were monitored using a Seahorse XF96 extracellular flux analyzer at 32 °C. Mouse heart mitochondria, and mouse and rat liver mitochondria were plated into XF96 plates at 4 and 16–20 μg per well, respectively, in 220 mM mannitol, 70 mM sucrose, 10 mM KH2PO4, 5 mM MgCl2, 1 mM EGTA, 0.2 % fatty acid-free BSA, and 2 mM HEPES (pH 7.4 at 37 °C) with 10 mM glutamate and 10 mM malate and adhered by centrifugation (2000 × g, 20 min, 4 °C). The medium was supplemented with a further 5 mM glutamate and 5 mM malate and the mitochondria incubated for 15 min. Then two baseline readings were taken before the biguanides were added at IC50/5. Biguanides were allowed to accumulate for 15–20 min before respiration was […] by the addition of 4 mM ADP. Rotenone (2 μM) was added at the end of the experiment. Data from wells with failed port injections were excluded from the analyses. The RCR values (state III versus state IV respiration) were 3.4, 4.8, and 4.6 for mouse heart, rat liver, and mouse liver, respectively.

mouse liver mitochondria = test: ADP-stimulated rotenone-sensitive OCR in isolated mouse liver mitochondria; format: biochemical; design: rotenone sensitive OCR after ADP stimulation, individual replicates / rotenone sensitive OCR after ADP stimulation, average: unit not given here; settings: for rotenone sensitive OCR after ADP stimulation, % of control, average / rotenone sensitive OCR after ADP stimulation, average: average of replicates; for rotenone sensitive OCR after ADP stimulation, % of control, individual replicates / rotenone sensitive OCR after ADP stimulation, individual replicates: replicate 1-5
Protocol: as §1, §3

[3] = system: acetyl-coA carboxylase (phospho-Ser79); test: AMPK activation, western blot of phospho-acetyl-coA carboxylase in MDBK cells; format: cell-based, Bos taurus; settings: for ACC, average normalised to control: Averages of experiments 1-3, 18 hours; for p-ACC: band intensity
Protocol: MDBK cells were seeded at 1 × 10^6 cells per 6 cm dish in DMEM containing 10 % FBS. […] After 18 h cells were harvested by a rapid lysis procedure: cells were rinsed with PBS, then lysed using ice-cold buffer containing 50 mM HEPES, 1 mM EDTA, 10 % glycerol, 50 mM NaF, 5 mM sodium pyrophosphate, 1 % Triton-X100, 1 mM dithiothreitol (DTT), and a protease inhibitor cocktail (Roche). The cell lysate was centrifuged at 14,000 × g for 20 min at 4 °C and the protein concentration of the supernatant determined by bicinchoninic acid assay. The lysate was analyzed using Novex 3–12 % bis-Tris gels run in 3-(N-morpholino)propanesulfonic acid (MOPS) buffer (20 μg of protein per lane) followed by transfer to low fluorescence polyvinylidene fluoride membranes by wet transfer. Primary rabbit antibodies for AMPK-β (57C12), AMPK-α (phospho-Thr172) (40H9), and acetyl-coA carboxylase (phospho-Ser79) (Cell Signaling Technology) were incubated overnight with the membrane (1:1000 dilution) in Odyssey blocking buffer at 4 °C. A fluorescent secondary antibody was used (IRDYE800CW from LI-COR Biosciences, 1:20,000 dilution) with a LI-COR Odyssey imaging system.

[4] = bovine heart mitochondrial membranes; inhibitor 0.05 mM; read-out: average % (rate, % of no-inhibitor control)
[5] = bovine heart mitochondrial membranes; inhibitor 0.12 mM; read-out: average % (rate, % of no-inhibitor control)
[6] = bovine heart mitochondrial membranes; inhibitor 0.25 mM; read-out: average % (rate, % of no-inhibitor control)
[7] = bovine heart mitochondrial membranes; inhibitor 0.50 mM; read-out: average % (rate, % of no-inhibitor control)
[8] = log of concentration in mM; sample given as Bovine heart mitochondrial membranes; Prism variable slope fit, Bottom 0, Top 100
[9] = sample given as Bovine heart mitochondrial membranes; Prism log(inhibitor) vs. response variable slope fit (four parameters), Bottom 0, Top 100; read-out: IC50 (best fit value)
[10] = sample given as Bovine heart mitochondrial membranes; Prism variable slope fit, Bottom 0, Top 100
[11] = bovine heart mitochondrial membranes; inhibitor 0.025 mM; read-out: average % (rate, % of no-inhibitor control)

Sequence of bovine heart mitochondrial membranes (complex I) (P42026 38-216): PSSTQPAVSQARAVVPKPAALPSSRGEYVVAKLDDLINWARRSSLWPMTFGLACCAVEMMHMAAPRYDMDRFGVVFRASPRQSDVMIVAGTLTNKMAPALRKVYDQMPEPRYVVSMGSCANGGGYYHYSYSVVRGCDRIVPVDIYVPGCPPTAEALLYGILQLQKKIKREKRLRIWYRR
Sequence of bovine heart mitochondrial membranes (complex I) (P17694 34-463): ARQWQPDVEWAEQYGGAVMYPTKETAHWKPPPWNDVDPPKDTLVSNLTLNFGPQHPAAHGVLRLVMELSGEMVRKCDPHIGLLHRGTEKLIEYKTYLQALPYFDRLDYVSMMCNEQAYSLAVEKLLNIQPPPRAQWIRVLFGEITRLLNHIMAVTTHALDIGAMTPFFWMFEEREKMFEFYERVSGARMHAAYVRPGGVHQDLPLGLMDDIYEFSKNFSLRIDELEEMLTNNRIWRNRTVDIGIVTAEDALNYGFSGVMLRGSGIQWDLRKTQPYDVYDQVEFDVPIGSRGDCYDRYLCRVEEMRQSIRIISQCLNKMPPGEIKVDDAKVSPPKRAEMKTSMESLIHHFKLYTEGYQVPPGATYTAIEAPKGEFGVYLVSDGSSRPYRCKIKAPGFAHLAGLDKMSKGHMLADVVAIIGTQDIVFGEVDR
Sequence of bovine heart mitochondrial membranes (complex I) (P03887 whole entry): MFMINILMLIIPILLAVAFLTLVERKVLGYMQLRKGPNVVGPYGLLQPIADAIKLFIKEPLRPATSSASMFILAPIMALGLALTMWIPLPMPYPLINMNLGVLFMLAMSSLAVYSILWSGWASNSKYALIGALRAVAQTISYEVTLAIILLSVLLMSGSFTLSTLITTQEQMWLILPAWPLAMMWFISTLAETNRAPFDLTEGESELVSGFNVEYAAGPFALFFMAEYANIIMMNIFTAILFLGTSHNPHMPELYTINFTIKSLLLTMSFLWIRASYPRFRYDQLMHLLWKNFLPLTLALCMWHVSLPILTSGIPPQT
Sequence of bovine heart mitochondrial membranes (complex I) (P03898 whole entry): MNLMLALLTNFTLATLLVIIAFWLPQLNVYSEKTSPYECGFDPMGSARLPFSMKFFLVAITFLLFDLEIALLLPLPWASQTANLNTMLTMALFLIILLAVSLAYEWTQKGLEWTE

## NC(N)=NC(N)=NCc1ccccc1 [compound 3, 2-benzyl-1-(diaminomethylidene)guanidine]
[1]; [4]
  remaining activity at 50 µM: 88.7%
[1]; [5]
  remaining activity at 120 µM: 76.2%
[1]; [6]
  remaining activity at 250 µM: 69.2%
[1]; [7]
  remaining activity at 500 µM: 55.6%
[1]; bovine heart mitochondrial membranes; inhibitor 1.25 mM; read-out: average % (rate, % of no-inhibitor control)
  remaining activity at 1250 µM: 44.4%
[1]; bovine heart mitochondrial membranes; inhibitor 2.50 mM; read-out: average % (rate, % of no-inhibitor control)
  remaining activity at 2500 µM: 37.2%
[1]; bovine heart mitochondrial membranes; inhibitor 5.00 mM; read-out: average % (rate, % of no-inhibitor control)
  remaining activity at 5000 µM: 31.2%
[1]; [8]
  LogIC50 (best fit value): -0.01339
[1]; [9]
  IC50: 970 µM
[1]; [10]
  HillSlope (best fit value): -0.5756
[2]
  Complex II assay (succinate:O2 oxidoreduction), average: 97.37
Rat liver mitochondria
  rotenone sensitive OCR after ADP stimulation, % of control, average: 24.02 % of control
  rotenone sensitive OCR after ADP stimulation, average: 6.59
  rotenone sensitive OCR after ADP stimulation, % of control, individual replicates: 20.74 % of control and 19.21 % of control and 31.06 % of control and 25.09 % of control
  rotenone sensitive OCR after ADP stimulation, individual replicates: 5.69 and 5.27 and 8.51 and 6.88
Mouse liver mitochondria
  rotenone sensitive OCR after ADP stimulation, % of control, average: 32.07 % of control
  rotenone sensitive OCR after ADP stimulation, average: 11.13
  rotenone sensitive OCR after ADP stimulation, % of control, individual replicates: 34.06 % of control and 31.32 % of control and 34.05 % of control and 28.86 % of control
  rotenone sensitive OCR after ADP stimulation, individual replicates: 11.82 (2×) and 10.87 and 10.01
[3]
  ACC, average normalised to control: 12.79
[3]; Experiment 1, 18 hours
  p-ACC / AMPK beta: 2.45
  p-ACC / AMPK beta normalised to control: 12.63
  p-ACC: 1150
[3]; Experiment 2, 18 hours
  p-ACC / AMPK beta: 2.31
  p-ACC / AMPK beta normalised to control: 14.32
  p-ACC: 699
[3]; Experiment 3, 18 hours
  p-ACC / AMPK beta: 3.41
  p-ACC / AMPK beta normalised to control: 11.43
  p-ACC: 770

## [H]/N=C(\N/C(=N/[H])Nc1ccc(Cl)cc1)NC(C)C [proguanil, reference compound]
[1]; bovine heart mitochondrial membranes; inhibitor 0.005 mM; read-out: average % (rate, % of no-inhibitor control)
  remaining activity at 5 µM: 76.5%
[1]; bovine heart mitochondrial membranes; inhibitor 0.0125 mM; read-out: average % (rate, % of no-inhibitor control)
  remaining activity at 12.5 µM: 56.2%
[1]; [11]
  remaining activity at 25 µM: 41.4%
[1]; [4]
  remaining activity at 50 µM: 24.9%
[1]; bovine heart mitochondrial membranes; inhibitor 0.10 mM; read-out: average % (rate, % of no-inhibitor control)
  remaining activity at 100 µM: 7.77%
[1]; [6]
  remaining activity at 250 µM: 6.98%
[1]; [7]
  remaining activity at 500 µM: 7.97%
[1]; [8]
  LogIC50 (best fit value): -1.788
[1]; read-out: IC50 (best fit value); sample given as Bovine heart mitochondrial membranes; Prism log(inhibitor) vs. response variable slope fit (four parameters), Bottom 0, Top 100
  IC50: 16.3 µM
[1]; [10]
  HillSlope (best fit value): -1.025
[2]
  Complex II assay (succinate:O2 oxidoreduction), average: 95.35
Rat liver mitochondria
  rotenone sensitive OCR after ADP stimulation, % of control, average: 91.40 % of control
  rotenone sensitive OCR after ADP stimulation, average: 25.06
  rotenone sensitive OCR after ADP stimulation, % of control, individual replicates: 82.64 % of control and 94.24 % of control and 97.33 % of control
  rotenone sensitive OCR after ADP stimulation, individual replicates: 22.66 and 25.84 and 26.69
Mouse liver mitochondria
  rotenone sensitive OCR after ADP stimulation, % of control, average: 89.71 % of control
  rotenone sensitive OCR after ADP stimulation, average: 31.13
  rotenone sensitive OCR after ADP stimulation, % of control, individual replicates: 103.28 % of control and 81.19 % of control and 80.15 % of control and 94.21 % of control
  rotenone sensitive OCR after ADP stimulation, individual replicates: 35.84 and 28.17 and 27.81 and 32.69
[3]
  ACC, average normalised to control: 1.76
[3]; Experiment 1, 18 hours
  p-ACC / AMPK beta: 0.34
  p-ACC / AMPK beta normalised to control: 1.73
  p-ACC: 161
[3]; Experiment 2, 18 hours
  p-ACC / AMPK beta: 0.32
  p-ACC / AMPK beta normalised to control: 1.97
  p-ACC: 112
[3]; Experiment 3, 18 hours
  p-ACC / AMPK beta: 0.47
  p-ACC / AMPK beta normalised to control: 1.56
  p-ACC: 91.3

## NC(N)=NC(N)=NCCc1ccc(Cl)cc1 [compound 1, 2-[2-(4-chlorophenyl)ethyl]-1-(diaminomethylidene)guanidine]
[1]; [11]
  remaining activity at 25 µM: 91.4%
[1]; [4]
  remaining activity at 50 µM: 77.5%
[1]; [5]
  remaining activity at 120 µM: 66.8%
[1]; [6]
  remaining activity at 250 µM: 57.4%
[1]; [7]
  remaining activity at 500 µM: 44.1%
[1]; bovine heart mitochondrial membranes; inhibitor 1.00 mM; read-out: average % (rate, % of no-inhibitor control)
  remaining activity at 1000 µM: 35.1%
[1]; bovine heart mitochondrial membranes; inhibitor 2.00 mM; read-out: average % (rate, % of no-inhibitor control)
  remaining activity at 2000 µM: 28.9%
[1]; [8]
  LogIC50 (best fit value): -0.4001
[1]; [9]
  IC50: 398 µM
[1]; [10]
  HillSlope (best fit value): -0.6555
[2]
  Complex II assay (succinate:O2 oxidoreduction), average: 92.41
Rat liver mitochondria
  rotenone sensitive OCR after ADP stimulation, % of control, average: 55.19 % of control
  rotenone sensitive OCR after ADP stimulation, average: 15.13
  rotenone sensitive OCR after ADP stimulation, % of control, individual replicates: 67.97 % of control and 49.70 % of control and 53.49 % of control and 49.59 % of control
  rotenone sensitive OCR after ADP stimulation, individual replicates: 18.64 and 13.63 and 14.67 and 13.60
Mouse liver mitochondria
  rotenone sensitive OCR after ADP stimulation, % of control, average: 43.22 % of control
  rotenone sensitive OCR after ADP stimulation, average: 14.99
  rotenone sensitive OCR after ADP stimulation, % of control, individual replicates: 45.82 % of control and 40.66 % of control and 43.16 % of control
  rotenone sensitive OCR after ADP stimulation, individual replicates: 15.90 and 14.11 and 14.98
[3]
  ACC, average normalised to control: 9.49
[3]; Experiment 1, 18 hours
  p-ACC / AMPK beta: 1.85
  p-ACC / AMPK beta normalised to control: 9.53
  p-ACC: 848
[3]; Experiment 2, 18 hours
  p-ACC / AMPK beta: 2.03
  p-ACC / AMPK beta normalised to control: 12.57
  p-ACC: 727
[3]; Experiment 3, 18 hours
  p-ACC / AMPK beta: 1.89
  p-ACC / AMPK beta normalised to control: 6.35
  p-ACC: 483
